Holding throughout (assay): NCI-60 cell line screen, 48 h
Assay [1] relates to DU-145 prostate.
Assay [2] concerns CCRF-CEM leukemia.
Assay [3] relates to HOP-92 NSCLC.
For assay [4], the system named is OVCAR-5 ovarian.
Assay [5] has as its system NCI-H460 lung.
The subject of assay [6] is SNB-75 CNS.
The test system of assay [7] is LOX IMVI melanoma.
Assay [8] deals with SF-539 CNS.
The subject of assay [9] is SK-MEL-28 melanoma.
Assay [10] relates to MDA-N.
The test system of assay [11] is HL-60(TB) leukemia.
For assay [12], the system named is CAKI-1 renal.
The subject of assay [13] is KM12 colon.
In assay [14] the test system is OVCAR-8 ovarian.
Assay [15] deals with RXF 393 renal.
The test system of assay [16] is HCT-116 colon.
Assay [17] has as its system U251 CNS.
In assay [18] the test system is A498 renal.

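Method: 48-hour compound exposure of cells in 96-well plates, five concentrations, linear interpolation of endpoints. TGI denotes the concentration required for complete inhibition of growth.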

On to `C=CCNC(=O)NC(=O)CSC1=NNC2(C(=O)N1)c1ccccc1-c1ccccc12`, for which the TGI in assay [1], in [2], in assay [3], in assay [4], in [5] and in assay [6] was > 10 µM throughout. In addition, the TGI in assay [7], in [8], in [9], in assay [10], in assay [11] and in [12] was > 10 µM each time. Further, the TGI in assay [13], in assay [14], in assay [15] and in assay [16] was > 10 µM in each case.
Turning to `CCOC(=O)P(=O)(O)c1ccc(N(C)Cc2ccccc2)cc1`, the TGI in assay [1], in assay [2], in [3], in assay [4], in [6] and in assay [17] was > 100 µM each time. The TGI in assay [7], in assay [8], in assay [9], in [10], in assay [11] and in [12] was > 100 µM throughout. Moreover, the TGI in assay [13], in assay [14], in assay [18] and in [16] was > 100 µM in each case.
Take `O=[N+]([O-])/C(C(Cl)=C(Cl)Cl)=C(\N1CCOCC1)n1nnc2ccccc21`: the TGI in assay [1] is 37.5 µM; in [3], 37.6 µM; in assay [4], 44 µM; in assay [5], 45.6 µM; in assay [6], 42.4 µM; in assay [17], 30.3 µM. Also, the TGI in [8] worked out at 32.8 µM; in assay [9] it was 42.6 µM; in assay [10] it was 42.5 µM; in [12], 31.6 µM; in assay [13], 45.6 µM; in [18] it was 37.8 µM. Besides, in assay [16], the TGI is > 100 µM.
`CCc1n[nH]c(=O)n1/N=C/c1c(O)ccc2ccccc12`: the TGI in assay [1], in assay [2], in assay [3], in assay [4], in [6] and in [17] was > 100 µM each time. Besides, the TGI in assay [7], in [8], in assay [9], in assay [10], in assay [13] and in assay [14] was > 100 µM in each case. In addition, the TGI in assay [15] and in assay [16] was > 100 µM in each case.
For `O=C1CCCCC/C1=C\c1cccc(Cl)c1`, the TGI in assay [1] is > 100 µM; in assay [2], 30.4 µM; in assay [3] it was > 100 µM; in assay [4] it was > 100 µM; in assay [5], 87.7 µM; in [6] it was > 100 µM. Moreover, the TGI in assay [17], in assay [7], in assay [9], in assay [10], in assay [12] and in assay [13] was > 100 µM in each case. Moreover, the TGI in assay [18] and in [16] was > 100 µM in each case.
`CS(=O)(=O)c1nc(-c2cc3c(c(S(C)(=O)=O)n2)CCC3)cc2c1CCCCC2`: the TGI in [1] was > 100 µM; in assay [2], > 100 µM; in assay [4], > 100 µM; in [6], 24.7 µM; in assay [17], > 100 µM; in [7], > 100 µM. In addition, the TGI in assay [9], in [10], in assay [11], in [12], in [13] and in [14] was > 100 µM each time. The figures for the TGI in assay [15] and in assay [16] were 39.3 µM and > 100 µM, respectively.
For the compound `CCOC(=O)/C(C#N)=C\c1ccc(N(CCC(=O)O)CCC(=O)O)c(I)c1`, the TGI in [1], in assay [2], in assay [3], in assay [5], in assay [6] and in assay [7] was > 10 µM in each case. Also, the TGI in assay [8], in assay [9], in assay [10], in assay [11], in [12] and in assay [13] was > 10 µM throughout. Moreover, the TGI in [14], in assay [15] and in assay [16] was > 10 µM throughout.
Take `O=C(O)c1nc2cc(C(F)(F)F)ccc2nc1Nc1ccc(F)cc1`: the TGI in [2] was > 100 µM; in [3] it was 39.3 µM; in assay [4] it was 93.5 µM; in assay [6] it was 49.5 µM; in assay [17], 59.5 µM; in assay [7], 48.5 µM. Moreover, the TGI in assay [8] is 32.4 µM; in [9] it was > 100 µM; in assay [10], 91 µM; in [12], 74.7 µM; in [13] it was 30.3 µM; in assay [14], 81.7 µM. Besides, the TGI in assay [15] stood at 36 µM; in [18] it was 47.7 µM; in [16] it was 48.4 µM.
For the compound `O=C1NC2ON=C(c3ccccc3)C2C2ON=C(c3ccccc3)N12` (stereo not drawn), the TGI in [1], in assay [4], in [5], in [6], in assay [7] and in assay [8] was > 100 µM each time. For the same compound, the TGI in [10], in assay [12], in [13], in assay [14] and in assay [15] was > 100 µM in each case.

(Values after PubChem BioAssay (NCI).)
